Eight compounds from PubChem BioAssay (NCI) can be followed below.

Each structure is given as a SMILES string. Several values for one entry are separate records, joined by “and”; a condition that tells them apart may be missing. Equal entries are not always repeated.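 Each compound was tested at five concentrations against cells in 96-well plates for 48 hours. Abbreviation: GI50, concentration required for 50% inhibition of growth. TGI marks complete inhibition of growth.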

Some test systems named below: COLO 205 colon; SF-539 CNS; SNB-75 CNS; OVCAR-3 ovarian; SK-MEL-28 melanoma; LOX IMVI melanoma; HCT-15 colon; HL-60(TB) leukemia; SR leukemia; SK-MEL-2 melanoma.
Experiment in all cases: NCI anticancer screen, dose series, 48 h

Take `COc1cc(C(=O)N2CCc3c([nH]c4c([N+](=O)[O-])c(OC)ccc34)C2C)cc(OC)c1OC` (centres undefined): the TGI in the assay on COLO 205 colon is above 100 µM; with SF-539 CNS, above 100 µM; in the assay on SNB-75 CNS, 98.3 µM; with OVCAR-3 ovarian, above 100 µM; in the assay on SK-MEL-28 melanoma, above 100 µM; in the assay with LOX IMVI melanoma, above 100 µM. The TGI with HCT-15 colon, in the assay on HL-60(TB) leukemia, with SR leukemia and in the assay with SK-MEL-2 melanoma was above 100 µM throughout.
On to `O=c1[nH]c(=O)n([C@H]2CCCO2)cc1F`, for which the GI50 in the assay on COLO 205 colon was 1090 µM; in the assay with SF-539 CNS it was 374 µM; in the assay on SNB-75 CNS, above 5000 µM; with OVCAR-3 ovarian, 1650 µM; with SK-MEL-28 melanoma, 1040 µM; with LOX IMVI melanoma, 1120 µM. Also, the GI50 in the assay with HCT-15 colon is 1050 µM; in the assay with HL-60(TB) leukemia it was 1030 µM; with SR leukemia, 473 µM; with SK-MEL-2 melanoma it was 1950 µM. In addition, the TGI in the assay on COLO 205 colon is above 5000 µM; in the assay with SF-539 CNS, 864 µM and 3520 µM; in the assay with SNB-75 CNS it was 826 µM and > 5000 µM; in the assay with OVCAR-3 ovarian it was above 5000 µM; in the assay with SK-MEL-28 melanoma, above 5000 µM; in the assay with LOX IMVI melanoma, above 5000 µM. Also, the TGI was above 5000 µM in the assay with HCT-15 colon, above 5000 µM in the assay on HL-60(TB) leukemia, above 2360 µM with SR leukemia and above 5000 µM in the assay on SK-MEL-2 melanoma.
Regarding `COc1ccc2c(Oc3ccc(NC(=O)c4c(C)n(CC(C)(C)O)n(-c5ccccc5)c4=O)nc3)ccnc2c1`, the GI50 with COLO 205 colon is above 73.4 µM; with SF-539 CNS, 5.85 µM; in the assay with SNB-75 CNS, 5.53 µM; in the assay on OVCAR-3 ovarian, 19.5 µM; in the assay on SK-MEL-28 melanoma, 22.3 µM; in the assay with LOX IMVI melanoma, 10.9 µM. Also, the GI50 is 6.75 µM in the assay on HCT-15 colon, 14.6 µM with HL-60(TB) leukemia, 8.57 µM in the assay on SR leukemia and 13.3 µM in the assay with SK-MEL-2 melanoma. In addition, the TGI in the assay on COLO 205 colon is above 100 µM; in the assay on SF-539 CNS, 50.9 µM; with SNB-75 CNS, 71.1 µM; in the assay on OVCAR-3 ovarian it was 70.6 µM; in the assay on SK-MEL-28 melanoma, above 100 µM; in the assay on LOX IMVI melanoma, above 100 µM. Further, the TGI was above 100 µM in the assay on HCT-15 colon, above 62.3 µM with HL-60(TB) leukemia, above 100 µM with SR leukemia and 49.4 µM in the assay on SK-MEL-2 melanoma.
As to `CC(O)CC(O)(C(F)(F)F)C(F)(F)F` (centres undefined), the TGI in the assay on COLO 205 colon, in the assay on SF-539 CNS, in the assay on SNB-75 CNS, in the assay on OVCAR-3 ovarian, with SK-MEL-28 melanoma and in the assay with LOX IMVI melanoma was above 10 µM throughout. For the same compound, the TGI in the assay with HCT-15 colon, with HL-60(TB) leukemia, in the assay on SR leukemia and with SK-MEL-2 melanoma was above 10 µM in each case.
`C/C(=N\NC(=S)N1CC2CCC(CC2)C1)c1ccccn1`: the GI50 was 0.0146 µM with COLO 205 colon; 0.257 µM with SF-539 CNS; 0.643 µM in the assay with SNB-75 CNS; below 0.0141 µM in the assay on OVCAR-3 ovarian; 0.767 µM with SK-MEL-28 melanoma; 0.0428 µM in the assay on LOX IMVI melanoma. Also, the GI50 in the assay on HCT-15 colon was 0.0313 µM; in the assay with HL-60(TB) leukemia it was 0.0482 µM; in the assay with SR leukemia, 0.0424 µM; with SK-MEL-2 melanoma it was 0.419 µM. Moreover, the TGI in the assay with COLO 205 colon is 0.0719 µM; with SF-539 CNS it was 2.34 µM; in the assay with SNB-75 CNS it was 2.07 µM; in the assay with OVCAR-3 ovarian, 0.29 µM; in the assay on SK-MEL-28 melanoma it was 2.93 µM; in the assay on LOX IMVI melanoma, 1.81 µM. Besides, the TGI in the assay with HCT-15 colon stood at 2.51 µM; in the assay on HL-60(TB) leukemia, 1.21 µM; with SR leukemia, 2.22 µM; in the assay with SK-MEL-2 melanoma, 1.99 µM.
Regarding `OCCNCCOc1ccc(/C(=C(/Cl)c2ccccc2)c2ccccc2)cc1`, the TGI was 22.8 µM with COLO 205 colon; 26.6 µM in the assay with SF-539 CNS; 8.46 µM with SNB-75 CNS; 24.8 µM with OVCAR-3 ovarian; 3.16 µM in the assay on SK-MEL-28 melanoma; 16.6 µM with LOX IMVI melanoma. Further, the TGI with HCT-15 colon stood at 18.6 µM; in the assay on HL-60(TB) leukemia it was 4.52 µM; with SR leukemia it was 12.5 µM; with SK-MEL-2 melanoma, 26.4 µM.
`CC1=C(C(=O)Nc2ccccc2)C(c2ccc(C3C(C(=O)Nc4ccccc4)=C(C)NC(C)=C3C(=O)Nc3ccccc3)cc2)C(C(=O)Nc2ccccc2)=C(C)N1`: the TGI in the assay with COLO 205 colon was 10.6 µM; with SF-539 CNS it was 5.97 µM; with SNB-75 CNS, 23.7 µM; in the assay on OVCAR-3 ovarian, 14.5 µM; with SK-MEL-28 melanoma it was 3.64 µM; in the assay on LOX IMVI melanoma, 3.24 µM. The TGI in the assay with HCT-15 colon is 9 µM; in the assay on HL-60(TB) leukemia, 7.21 µM; in the assay with SR leukemia it was 5.41 µM; in the assay on SK-MEL-2 melanoma, 5.06 µM.
For `CCOc1ccccc1NC(=O)C(C#N)C1=C(Cl)C(=O)c2ccccc2C1=O` (centres undefined), the GI50 is 12.6 µM in the assay with COLO 205 colon; 1.68 µM in the assay with SNB-75 CNS; 2 µM with OVCAR-3 ovarian; 1.38 µM with LOX IMVI melanoma; 2.85 µM in the assay with HL-60(TB) leukemia. The TGI was 3.43 µM and 27.9 µM with COLO 205 colon; 3.64 µM and 3.54 µM in the assay on SF-539 CNS; 3.94 µM and 3.09 µM in the assay with SNB-75 CNS; 2.97 µM and 5.04 µM with OVCAR-3 ovarian; 3.62 µM in the assay with SK-MEL-28 melanoma; 2.08 µM and 3.28 µM in the assay on LOX IMVI melanoma. The TGI with HCT-15 colon is 2.94 µM; in the assay with SR leukemia, 3.73 µM; in the assay on SK-MEL-2 melanoma it was 3.05 µM and 3.12 µM.
